Assay results taken from patent publication US6919360B2, “Benzisothiazolyl-substituted aminomethyl chromanes for treating diseases of the central nervous system” (Bayer HealthCare AG, priority 2001, dated 2005).
Structures can show the parent of a compound that is named as a salt.

Columns and labels:
5-HT1A receptors = target: T1, 5-HT1A receptors (Rattus norvegicus, UniProt P19327); assay: Affinity to the 5-HT1A receptor: [3H]-8-OH-DPAT binding in hippocampus membranes; conditions: displacement of [3H]-8-OH-DPAT, hippocampus membranes of rats; Ki calculated from IC50
T1 construct: 5-HT1A receptors in hippocampus membranes of rats; from tissue; host or cells: rat hippocampus membranes
T1 sequence (P19327 1-422): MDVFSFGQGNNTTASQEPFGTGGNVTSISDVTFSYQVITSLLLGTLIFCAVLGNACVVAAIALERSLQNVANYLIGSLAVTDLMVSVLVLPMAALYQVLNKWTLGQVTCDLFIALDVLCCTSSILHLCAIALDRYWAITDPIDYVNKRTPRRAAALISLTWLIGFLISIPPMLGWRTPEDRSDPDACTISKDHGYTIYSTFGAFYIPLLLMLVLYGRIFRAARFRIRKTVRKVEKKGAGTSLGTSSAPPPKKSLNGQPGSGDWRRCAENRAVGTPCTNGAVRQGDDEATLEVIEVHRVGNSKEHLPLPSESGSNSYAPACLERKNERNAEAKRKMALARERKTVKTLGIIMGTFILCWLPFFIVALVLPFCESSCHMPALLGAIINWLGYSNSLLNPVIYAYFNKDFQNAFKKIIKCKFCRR
Procedure: 1. Affinity to the 5-HT1A Receptor
(Dompert et al., Naunyn-Schmiedeberg's Arch. Pharmacol. 1985, 328, 467-470).
In this test, binding of [^3H]-8-OH-DPAT to 5-HT1A receptors in hippocampus membranes of rats is measured.
In the binding test, IC50 values are determined which state at which concentration of test substance 50% of bound radio ligand is displaced. Taking into account the dissociation constants and the concentration of radio ligand, this is used to calculate the inhibition constant Ki.

Compound | melting point [°C] | Ki (5-HT1A receptors) [nM]
O=C1c2ccccc2S(=O)(=O)N1CCCCNC[C@H]1CCc2cc(O)ccc2O1 (as salt: hydrochloride) [Example 2, 2-[4-({[(2R)-6-Hydroxy-3,4-dihydro-2H-chromen-2-yl]methyl}amino)butyl]-1,2-benzisothiazol-3(2H)-one 1,1-dioxide hydrochloride] | 220 to 222 | –
COc1cc2c(cc1O)O[C@@H](CNCCCCN1C(=O)c3ccccc3S1(=O)=O)CC2 [Example 1, (R)-(−)-2-(4-{[(7-Hydroxy-6-methoxy-3,4-dihydro-2H-chromen-2-yl)methyl]-amino}butyl)-1,2-benzisothiazol-3(2H)-one 1,1-dioxide hydrochloride] | – | 3.15
O=C1c2ccccc2S(=O)(=O)N1CCCCNC[C@H]1CCc2cc(O)ccc2O1 [Example 2, 2-[4-({[(2R)-6-Hydroxy-3,4-dihydro-2H-chromen-2-yl]methyl}amino)butyl]-1,2-benzisothiazol-3(2H)-one 1,1-dioxide hydrochloride] | – | 1.93
